Reference: patent US20170128519A1, “CASPASE INHIBITORS FOR THE TREATMENT OF COLORECTAL CANCER” (Conatus Pharmaceuticals, Inc., priority 2015, published 2017)

System: HT-29 cells
Assay: crystal violet assay of adherent HT-29 cells after 5-FU treatment
Type: cell-based, human
Experimental: 5-Fluoruracil (5-FU) was from Sigma Aldrich, Necrostatin-1 was from Enzo Life Sciences. HAT-29 human CRC cell line was obtained from ATCC after cell line authentication utilizing short tandem repeat (STR) profiling. Within four weeks all cell lines were expanded and frozen in aliquots. Cell lines were reauthenticated and regularly tested for contamination as provided by the German Cancer Research Center (DKFZ) Core Facility (Heidelberg). Cells were cultured in RPMI-1640 medium (Biochrom) containing 10% FCS (PAA Laboratories) and 1% penicillin/streptomycin at 5% CO2 and 37° C.
HT-29 cells were incubated with 20 μM IDN-7314 and/or 20 μM Necrostatin (N) for 2 hours prior to treatment with 5-Fluoruracil (5-FU, 50 or 100 mg/ml). After 48 hours, the number of adherent cells was determined via crystal violet assay (RLU=relative light units). […] This effect could be abolished by the RIP1-specific kinase inhibitor, necrostatin, the reduced number of cells is due to induction of necrotic cell death.

SMILES	number of adherent cells (crystal violet assay, RLU) (20 μM IDN-7314 for 2 hours prior to 5-FU (50 or 100 mg/ml), read after 48 hours)	sensitization of colon cancer cells to chemotherapy-induced necrotic cell death (FIG. 1) (IDN-7314 with 5-FU)	effect of necrostatin on the reduction of adherent cells by IDN-7314 co-treatment (20 μM Necrostatin with 20 μM IDN-7314 for 2 hours prior to 5-FU (50 or 100 mg/ml), 48 hours)
C[C@H](NC(=O)C(=O)Nc1c(F)cccc1F)C(=O)N[C@@H](CC(=O)O)C(=O)COc1c(F)c(F)cc(F)c1F [IDN-7314]	significantly reduced the number of adherent cells	sensitizes colon cancer cells to chemotherapy-induced necrotic cell death	
CN1C(=O)C(Cc2c[nH]c3ccccc23)NC1=S (stereo not drawn) [necrostatin, Necrostatin-1, reference compound]			abolished
